Assay results as given in article PMC3776780, “Dual p38/JNK Mitogen Activated Protein Kinase Inhibitors Prevent Ozone-Induced Airway Hyperreactivity in Guinea Pigs” (PLoS ONE, 2013).

Legend:
Test in all cases: spectrophotometric coupled-enzyme kinase inhibition assay
Assay type in all cases: biochemical
ZAP70 = target: T1, ZAP70 (Homo sapiens, UniProt P43403); details: read-out: Ki or IC50 ZAP70
T1 sequence (P43403 1-619): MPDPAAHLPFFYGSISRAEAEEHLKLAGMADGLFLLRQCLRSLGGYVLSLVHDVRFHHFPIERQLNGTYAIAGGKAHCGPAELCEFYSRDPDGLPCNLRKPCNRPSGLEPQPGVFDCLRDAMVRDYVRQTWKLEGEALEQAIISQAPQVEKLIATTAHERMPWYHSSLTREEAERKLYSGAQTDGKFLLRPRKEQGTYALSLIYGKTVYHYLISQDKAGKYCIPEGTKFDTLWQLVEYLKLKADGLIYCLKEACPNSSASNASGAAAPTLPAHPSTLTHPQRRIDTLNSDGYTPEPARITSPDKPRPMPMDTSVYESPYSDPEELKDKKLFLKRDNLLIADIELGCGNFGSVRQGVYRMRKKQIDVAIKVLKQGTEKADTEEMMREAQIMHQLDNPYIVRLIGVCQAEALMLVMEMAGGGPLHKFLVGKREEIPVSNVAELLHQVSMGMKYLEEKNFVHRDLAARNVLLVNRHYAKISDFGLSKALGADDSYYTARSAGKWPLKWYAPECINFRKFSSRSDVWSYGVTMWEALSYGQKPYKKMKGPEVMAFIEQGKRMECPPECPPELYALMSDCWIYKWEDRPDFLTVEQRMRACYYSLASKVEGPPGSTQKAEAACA
Method: (§1) Affinity was measured using a kinase inhibition assay. Compounds were assayed for the inhibition of various kinases using a modification of a spectrophotometric coupled-enzyme assay. In this assay, a fixed concentration of activated kinase (10–40 nM) was incubated with various concentrations of a potential inhibitor dissolved in DMSO for 10 minutes at 30°C in a buffer containing 0.1 M HEPES, pH 7.5, containing 10 mM MgCl2, 2.5 mM phosphoenolpyruvate, 200 µM NADH, 2 mM DTT, 30 µg/mL pyruvate kinase, 10 µg/mL lactate dehydrogenase, and 200 µM–500 µM EGF receptor peptide. The EGF receptor peptide has the sequence […]. The reaction was initiated by the addition of ATP equal to the ATP Km of the kinase, and the assay plate is inserted into the spectrophotometer’s assay plate compartment that was maintained at 30°C. The decrease of absorbance at 340 nm was monitored as a function of time for 10 minutes. The rate data as a function of inhibitor concentration was either fit as an IC50 or to a competitive inhibition kinetic model to determine the compound Ki (see table 1).

IGF1R = IGF1R (Homo sapiens, UniProt P08069); details: read-out: Ki or IC50 IGF1R
Sequence of IGF1R (P08069 31-1367, species assumed): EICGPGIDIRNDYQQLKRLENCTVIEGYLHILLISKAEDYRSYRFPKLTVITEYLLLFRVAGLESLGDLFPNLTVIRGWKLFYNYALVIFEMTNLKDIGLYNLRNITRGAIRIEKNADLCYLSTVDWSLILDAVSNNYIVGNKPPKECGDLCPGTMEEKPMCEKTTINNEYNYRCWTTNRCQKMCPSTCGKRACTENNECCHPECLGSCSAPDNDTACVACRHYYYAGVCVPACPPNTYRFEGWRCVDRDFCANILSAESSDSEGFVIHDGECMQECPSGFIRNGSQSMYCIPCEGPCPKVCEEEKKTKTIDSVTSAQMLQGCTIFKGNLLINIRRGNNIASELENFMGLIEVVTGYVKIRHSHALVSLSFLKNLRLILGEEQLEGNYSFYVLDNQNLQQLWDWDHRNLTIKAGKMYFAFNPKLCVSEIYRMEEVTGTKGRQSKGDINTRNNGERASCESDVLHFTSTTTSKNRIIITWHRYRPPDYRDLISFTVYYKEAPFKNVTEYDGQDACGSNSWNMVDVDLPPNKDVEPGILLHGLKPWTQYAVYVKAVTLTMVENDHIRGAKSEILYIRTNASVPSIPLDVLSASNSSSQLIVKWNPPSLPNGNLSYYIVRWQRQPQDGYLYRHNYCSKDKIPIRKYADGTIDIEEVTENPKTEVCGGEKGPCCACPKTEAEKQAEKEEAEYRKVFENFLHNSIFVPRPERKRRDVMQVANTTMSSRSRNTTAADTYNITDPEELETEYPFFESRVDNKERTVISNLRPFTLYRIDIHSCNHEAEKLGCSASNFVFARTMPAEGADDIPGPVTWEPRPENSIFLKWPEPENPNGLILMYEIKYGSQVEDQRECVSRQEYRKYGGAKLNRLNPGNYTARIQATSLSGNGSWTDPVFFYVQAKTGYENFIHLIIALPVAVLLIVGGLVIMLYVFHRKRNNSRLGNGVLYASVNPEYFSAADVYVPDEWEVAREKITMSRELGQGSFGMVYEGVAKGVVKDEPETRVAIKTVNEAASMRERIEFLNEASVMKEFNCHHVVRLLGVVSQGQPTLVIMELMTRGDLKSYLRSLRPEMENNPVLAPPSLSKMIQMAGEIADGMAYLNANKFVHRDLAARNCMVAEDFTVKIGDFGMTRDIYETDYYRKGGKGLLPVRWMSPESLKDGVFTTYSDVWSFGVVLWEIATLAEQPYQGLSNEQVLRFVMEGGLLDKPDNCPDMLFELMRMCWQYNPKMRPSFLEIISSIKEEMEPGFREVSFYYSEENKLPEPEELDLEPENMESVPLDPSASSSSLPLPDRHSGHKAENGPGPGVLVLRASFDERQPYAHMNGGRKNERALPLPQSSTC
Method: as §1

SRC = SRC (Homo sapiens, UniProt P12931); details: read-out: Ki or IC50 SRC
Sequence of SRC (P12931 whole entry, species assumed): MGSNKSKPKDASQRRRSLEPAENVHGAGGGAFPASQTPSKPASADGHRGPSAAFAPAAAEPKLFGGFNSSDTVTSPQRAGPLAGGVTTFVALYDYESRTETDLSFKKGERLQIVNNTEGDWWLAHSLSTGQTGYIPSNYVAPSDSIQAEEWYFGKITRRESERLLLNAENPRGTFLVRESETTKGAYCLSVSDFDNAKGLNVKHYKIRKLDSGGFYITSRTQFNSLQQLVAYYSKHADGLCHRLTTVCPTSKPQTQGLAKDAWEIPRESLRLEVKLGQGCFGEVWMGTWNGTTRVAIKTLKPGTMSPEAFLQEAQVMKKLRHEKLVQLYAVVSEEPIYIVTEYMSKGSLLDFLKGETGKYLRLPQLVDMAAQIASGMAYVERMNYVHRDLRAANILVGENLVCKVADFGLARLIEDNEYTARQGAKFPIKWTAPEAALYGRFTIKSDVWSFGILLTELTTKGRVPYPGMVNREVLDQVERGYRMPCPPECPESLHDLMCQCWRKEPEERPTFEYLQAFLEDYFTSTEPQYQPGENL
Method: as §1

PLK1 = PLK1 (Homo sapiens, UniProt P53350); details: read-out: Ki or IC50 PLK1
Sequence of PLK1 (P53350 whole entry, species assumed): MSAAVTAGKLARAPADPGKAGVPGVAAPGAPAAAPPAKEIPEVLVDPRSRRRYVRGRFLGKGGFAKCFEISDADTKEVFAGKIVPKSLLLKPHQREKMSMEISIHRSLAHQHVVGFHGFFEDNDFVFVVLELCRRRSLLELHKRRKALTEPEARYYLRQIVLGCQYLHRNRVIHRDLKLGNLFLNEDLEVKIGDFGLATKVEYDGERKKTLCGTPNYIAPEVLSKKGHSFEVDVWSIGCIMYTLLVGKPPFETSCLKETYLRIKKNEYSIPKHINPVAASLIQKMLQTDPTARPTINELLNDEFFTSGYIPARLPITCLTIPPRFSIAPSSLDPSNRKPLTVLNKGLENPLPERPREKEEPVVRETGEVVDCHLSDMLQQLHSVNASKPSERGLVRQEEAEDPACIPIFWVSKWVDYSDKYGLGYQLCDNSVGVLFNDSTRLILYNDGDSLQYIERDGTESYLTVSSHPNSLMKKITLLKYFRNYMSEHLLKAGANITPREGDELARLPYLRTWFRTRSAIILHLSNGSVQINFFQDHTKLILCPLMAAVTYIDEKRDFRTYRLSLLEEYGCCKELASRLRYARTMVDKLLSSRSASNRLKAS
Method: as §1

AurA = target: T2, AurA (Homo sapiens, UniProt O14965); details: read-out: Ki or IC50 AurA
T2 sequence (O14965 1-403): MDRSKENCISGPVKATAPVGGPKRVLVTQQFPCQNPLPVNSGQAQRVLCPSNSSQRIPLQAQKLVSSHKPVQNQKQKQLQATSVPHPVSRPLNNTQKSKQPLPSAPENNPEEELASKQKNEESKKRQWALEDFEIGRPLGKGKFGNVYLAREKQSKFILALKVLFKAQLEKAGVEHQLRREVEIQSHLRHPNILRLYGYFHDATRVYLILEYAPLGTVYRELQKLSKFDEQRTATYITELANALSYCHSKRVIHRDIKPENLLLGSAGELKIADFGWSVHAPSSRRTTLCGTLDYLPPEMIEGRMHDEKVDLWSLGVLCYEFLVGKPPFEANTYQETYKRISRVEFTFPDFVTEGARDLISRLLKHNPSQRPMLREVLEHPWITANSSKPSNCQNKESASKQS
Method: as §1

PIM1 = PIM1 (Homo sapiens, UniProt P11309); details: read-out: Ki or IC50 PIM1
Sequence of PIM1 (P11309 whole entry, species assumed): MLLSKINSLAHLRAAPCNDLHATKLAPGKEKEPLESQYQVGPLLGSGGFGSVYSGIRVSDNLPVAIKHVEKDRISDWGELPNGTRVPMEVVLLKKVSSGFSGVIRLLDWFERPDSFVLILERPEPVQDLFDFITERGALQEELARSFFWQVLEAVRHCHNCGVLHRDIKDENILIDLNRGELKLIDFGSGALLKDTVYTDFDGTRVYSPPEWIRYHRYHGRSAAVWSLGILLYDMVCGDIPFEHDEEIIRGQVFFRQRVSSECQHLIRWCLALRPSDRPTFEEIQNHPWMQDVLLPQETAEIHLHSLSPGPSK
Method: as §1

JAK3 = target: T3, JAK3 (Homo sapiens, UniProt P52333); details: read-out: Ki or IC50 JAK3
T3 sequence (P52333 1-1124): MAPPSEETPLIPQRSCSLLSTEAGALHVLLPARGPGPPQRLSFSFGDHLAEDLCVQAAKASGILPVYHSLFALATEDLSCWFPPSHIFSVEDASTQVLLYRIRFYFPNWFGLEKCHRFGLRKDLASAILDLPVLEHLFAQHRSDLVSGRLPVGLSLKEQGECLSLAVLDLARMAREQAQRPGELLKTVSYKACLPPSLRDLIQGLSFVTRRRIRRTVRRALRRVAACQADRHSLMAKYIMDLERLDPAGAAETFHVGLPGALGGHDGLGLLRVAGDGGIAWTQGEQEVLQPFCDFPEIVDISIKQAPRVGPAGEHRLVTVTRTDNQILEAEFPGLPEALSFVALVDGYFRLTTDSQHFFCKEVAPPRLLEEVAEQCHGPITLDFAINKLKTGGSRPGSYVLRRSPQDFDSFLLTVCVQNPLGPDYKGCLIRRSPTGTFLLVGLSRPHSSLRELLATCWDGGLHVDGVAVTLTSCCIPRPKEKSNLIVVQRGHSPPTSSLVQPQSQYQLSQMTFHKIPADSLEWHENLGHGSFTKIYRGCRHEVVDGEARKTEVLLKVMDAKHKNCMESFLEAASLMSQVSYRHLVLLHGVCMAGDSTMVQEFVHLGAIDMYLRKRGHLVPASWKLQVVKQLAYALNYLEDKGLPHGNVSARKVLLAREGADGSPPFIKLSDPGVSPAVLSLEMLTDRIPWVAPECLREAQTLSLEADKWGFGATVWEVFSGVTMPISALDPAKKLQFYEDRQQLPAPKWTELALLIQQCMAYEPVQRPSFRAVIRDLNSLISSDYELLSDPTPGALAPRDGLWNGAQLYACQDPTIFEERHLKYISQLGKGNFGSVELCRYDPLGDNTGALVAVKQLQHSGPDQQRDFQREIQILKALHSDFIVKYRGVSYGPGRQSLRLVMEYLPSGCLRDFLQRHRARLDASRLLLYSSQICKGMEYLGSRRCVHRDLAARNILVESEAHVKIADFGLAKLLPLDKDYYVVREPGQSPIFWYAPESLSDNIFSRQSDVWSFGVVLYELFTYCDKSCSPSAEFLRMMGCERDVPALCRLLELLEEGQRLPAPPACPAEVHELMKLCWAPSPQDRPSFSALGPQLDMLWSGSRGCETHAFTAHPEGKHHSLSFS
Method: as §1

Measured: Ki

Fc1ccc(-c2noc(CN3CCCCC3)c2-c2ccnc(NC3CCCCC3)n2)cc1 [V-05-015]
> 1000 nM: all assays above

OC[C@@H]1CCCN1Cc1onc(-c2ccc(F)cc2)c1-c1ccnc(NC2CCCCC2)n1 [V-05-014]
> 1000 nM: all assays above

OC1CCN(Cc2onc(-c3ccc(F)cc3)c2-c2ccnc(NC3CCCCC3)n2)CC1 [V-05-013]
> 1000 nM: all assays above
